Experimental data from patent US4596806A, “7-piperidino-1,2,3,5-tetrahydroimidazo[2,1-b]-quinazolin-2-one having platelet aggregation inhibitory activity” (Daiichi Seiyaku Co., Ltd., priority 1983, dated 1986).
≈ marks a conversion by molar mass, not a printed value. Read-outs that look alike come from different tables or passages of the source.

Columns and labels:
[1] = system: B16BL6-induced aggregation; assay: Test of Inhibition of Platelet Aggregation Caused by Cancer Cells (ex vivo), B16BL6; format: in vivo, C57BL/6 mouse; conditions: 1 mg/kg or more, i.v. or oral
Protocol: (§1) The compound of the invention (dihydrochloride monohydrate) dissolved in a physiological saline solution (J.P.) was intravenously or orally administered to a 7-week-old C57BL/6 male mouse (body weight: about 20 g). Three minutes after the intravenous administration or 1 hour later from the oral administration, blood was taken from the abdominal vein into a syringe containing 1/10 volume of a 3.13% aqueous solution of sodium citrate dihydrate and PRP was prepared as described before in Test Example 6. The PRP was placed in a reaction tube under the same conditions as in Test Example 6, and 5 μl of a 200 mM calcium chloride aqueous solution was added thereto. One minute later, 50 μl of a B16BL6 (5×10^4 cells/50 μl)- or a 3LL (2×10^6 cells/50 μl)-cell suspension was added to the system. In the same manner as in Test Example 6, platelet aggregation was determined.

[2] = system: platelet aggregation due to addition of 3LL cells; assay: Test of Inhibition of Platelet Aggregation Caused by Cancer Cells (in vitro), 3LL; format: cell-based, C57BL/6 mouse
Protocol: Blood was taken from the abdominal vein of a 7-week-old C57BL/6 male mouse into a syringe containing 1/10 volume of a 3.13% aqueous solution of sodium citrate dihydrate as an anticoagulant. The thus prepared citrated blood sample was centrifuged at 230×g at room temperature for 7 minutes. The resulting supernatant fluid was used as PRP. The remainder was further centrifuged at 1,500×g at room temperature for 10 minutes, and the supernatant fluid was used as platelet-poor-plasma (PPP). Platelet count in PRP was adjusted to 450,000 per mm^3 by PPP. A 450 μl of PRP was placed in a reaction tube and subjected to centrifugation at 950 rpm at 30° C. About 1 minute later while continuing the centrifugation, 5 μl of a 200 mM calcium chloride aqueous solution was added to the system to a final concentration of […]. 30 seconds later, 5 μl of a saline solution of the compound (I) (dihydrochloride monohydrate) was added to the system, and additional 30 seconds later, 50 μl of a cell suspension containing 1×10^5 cells of B16 melamona BL6 (B16BL6) originated in a C57BL mouse or 50 μl of a cell suspension containing 1×10^6 cells of Lewis lung cancer (3LL) originated in a C57BL mouse was added thereto. Platelet aggregation of the sample system was determined from changes in transmittancy by use of an aggregometer. […]

[3] = Solubility Test (water-solubility); format: physicochemical
[4] = LD50 (probit method), rat; conditions: in vivo, iv
[5] = system: 3LL-induced aggregation; assay: Test of Inhibition of Platelet Aggregation Caused by Cancer Cells (ex vivo), 3LL; format: in vivo, C57BL/6 mouse
Protocol: as §1

[6] = system: platelet aggregation; assay: Test of Platelet Aggregation Inhibition (ex vivo, p.o.); format: in vivo, rat (male Wistar Imamichi); conditions: for inhibition at 1 mg/kg / inhibition at 10 mg/kg: Rattus norvegicus, Platelet, po, 1 h, read-out: Platelet Aggregation Inhibitory Activity (ex vivo: % inhibition); for inhibition at 1 mg/kg: p.o. 1 mg/Kg; for inhibition at 10 mg/kg: p.o. 10 mg/Kg
Protocol: One hour later, citrated blood was taken from the heart, and platelet aggregation was determined in the same manner as described in Test Example 2.

[7] = system: B16BL6; assay: Test of Inhibition on Pulmonary Metastasis, B16BL6; format: in vivo, C57BL/6 mouse; conditions: day 13, mean ± standard error
Protocol: (§2) 1×10^5 cells/animal of B16BL6 or 7×10^5 cells/animal of 3LL were inoculated to the tail vein of 10 to 12 6-week-old C57BL/6 male mice per group (body weight: about 18.5 g). The compound (I) (dihydrochloride monohydrate) dissolved in a physiological saline solution (J.P.) was administered to each animal at a dose of 1, 3 or 10 mg/kg orally 24 hours, 1 hour before and 1 hour after the inoculation, or intravenously immediately before the inoculation. On the 13th day from the inoculation of B16BL6 or 11th day from the inoculation of 3LL, the number of metastatic nodules in the lungs was counted using an operating microscope.

[8] = system: circulatory system; assay: Test of Influence on Circulatory System (blood pressure, heart beat); format: in vivo, rat (male normal SLC-Wistar); conditions: p.o. 50 mg/Kg
Protocol: 5 or 6 male normal SLC-Wistar rats per group (body weight: 205-255 g) orally received 50 mg/Kg of the test compound, and the blood pressure (tail cuff method) and the heart beats were measured with the passage of time in order to elucidate influences of the test compound on the circulatory system.

[9] = system: 3LL; assay: Test of Inhibition on Pulmonary Metastasis, 3LL; format: in vivo, C57BL/6 mouse; conditions: day 11, mean ± standard error
Protocol: as §2

[10] = system: Water Immersion and Immobilization-induced Gastric Ulcer; assay: Effect on Water Immersion and Immobilization-induced Gastric Ulcer in Rats; format: in vivo, rat (Donryu male); conditions: p.o.
Protocol: Donryu male rats having a body weight of 352 to 414 g were subjected to the stress-induced gastric ulceration test by water-immersion and immobilization [Takagi and Okabe, Japan J. Pharmacol., 18, 9-18 (1968)] at a water temperature of 20° to 22° C. for 7 hours. Compound (I) was administered orally in the form of a suspension in a 0.5% aqueous CMC solution at a dose of 5 ml/Kg 30 minutes before loading the stress. After the test period, the rats were sacrificed and the hyperemic area and the erosious area on the stomach inside wall were measured to determine % inhibition of the ulcer.

## O=C1CN2Cc3cc(N4CCCCC4)ccc3N=C2N1 [Compound (I), 7-piperidino-1,2,3,5-tetrahydroimidazo[2,1-b]quinazolin-2-one]
[1]
  inhibition of B16BL6-induced aggregation (ex vivo): completely inhibited
[2]; 0.3 μM
  inhibition of platelet aggregation due to addition of 3LL cells: partially inhibited
[2]; final concentration of 1 μM or more
  inhibition of platelet aggregation due to addition of 3LL cells: completely inhibited
[3]; Water at pH 4
  solubility: 4.1 mg/mL (≈ 15.2 mM)
[3]; pH 2, Tap Water, solution pH about 2
  solubility: 270 mg/mL (≈ 999 mM)
[4]; female Wistar rat
  LD50: 219 mg/kg
[4]; male Wistar rat
  LD50: 232 mg/kg
[5]; 10 mg/kg (i.v.)
  delay of 3LL-induced aggregation (ex vivo): ≥ 150%
[5]; 30 mg/kg (i.v.)
  inhibition of 3LL-induced aggregation (ex vivo): completely inhibited
[6]; inducer ADP
  inhibition at 1 mg/kg: 16.8%
  inhibition at 10 mg/kg: 33.8%
[6]; inducer collagen
  inhibition at 1 mg/kg: 20.6%
  inhibition at 10 mg/kg: 59.5%
[6]; p.o. 10 mg/Kg or 1 mg/Kg, ADP- or collagen-induced
  aggregation inhibitory activity ex vivo (in words): significant aggregation inhibitory activity
[7]; 1 mg/kg
  Number of Metastatic Nodules in the Lungs: 5.5 ± 1.1
[7]; 3 mg/kg
  Number of Metastatic Nodules in the Lungs: 5.3 ± 1.1
[7]; 10 mg/kg
  Number of Metastatic Nodules in the Lungs: 6.4 ± 1.1
[8]
  reduction in blood pressure and increase in heart beat (in words): relatively small and also these changes can be restored in short periods of time
[8]; 1 hr after admin.
  Increase in Heart Beat: 27%
  Reduction in Blood Pressure: 18%
[8]; 2 hr after admin.
  Increase in Heart Beat: 32%
  Reduction in Blood Pressure: 12%
[8]; 3 hr after admin.
  Increase in Heart Beat: 27%
  Reduction in Blood Pressure: 12%
[8]; 5 hr after admin.
  Increase in Heart Beat: 25%
  Reduction in Blood Pressure: 12%
[8]; 6 hr after admin.
  Increase in Heart Beat: 17%
  Reduction in Blood Pressure: 9%
[9]; 1 mg/kg
  Number of Metastatic Nodules in the Lungs: 15.4 ± 2.8
[9]; 3 mg/kg
  Number of Metastatic Nodules in the Lungs: 5.9 ± 1.3
[9]; 10 mg/kg
  Number of Metastatic Nodules in the Lungs: 4.0 ± 1.1
[10]; 30 mg/kg
  Ulcer Index, Erosious Area: 17.8 ± 5.7 mm
  Ulcer Index, Erosious Area, Inhibition: 32%
  Ulcer Index, Hyperemic Area: 19.4 ± 9.0 mm
  Ulcer Index, Hyperemic Area, Inhibition: 69%
[10]; 100 mg/kg
  Ulcer Index, Erosious Area: 1.3 ± 0.8 mm
  Ulcer Index, Erosious Area, Inhibition: 95%
  Ulcer Index, Hyperemic Area: 0 mm
  Ulcer Index, Hyperemic Area, Inhibition: 100%
[10]; 300 mg/kg
  Ulcer Index, Erosious Area: 2.6 ± 1.3 mm
  Ulcer Index, Erosious Area, Inhibition: 90%
  Ulcer Index, Hyperemic Area: 0 mm
  Ulcer Index, Hyperemic Area, Inhibition: 100%
